Entries after “also recorded” stand apart in the source; their conditions may differ.
Assays:
[1] = system: RBC; assay: membrane potential ratio (MPR) test: agent added to K+-free, EtOH-containing test buffer versus reference buffer; type: cell-based, human; details: for EtOH effect (hSK4 opening / hyperpolarization): hSK4 blockers added to the test buffer
From the text: It is essential to understand these differences so that the underlying pathophysiology of these disorders is better understood leading to better diagnostic markers and drug targets. […] Membrane potential ratio (MPR™) is the ratio between the membrane potential in the test buffer and that in the reference buffer. The reference buffer contains NaCl, CaCl2, glucose and Hepes whereas the test buffer contains ethyl alcohol (EtOH) in addition to these compounds. […] The role of the absence of K^+ ions in the buffer on membrane potential and the addition of EtOH needs to be understood in order to explain their effects.
The assay uses a reference buffer or regular buffer and a test buffer. The “reference buffer” or “regular buffer” contains only Na^+, Ca^2+, and HEPES without any other reagents. The “test buffer” containing no potassium (K^+-free buffer) is a HEPES buffer without potassium (4 mM NaHCO3, 5 mM HEPES, 134 mM NaCl, 2.3 mM CaCl2, and 5 mM glucose) and with a K^+ channel altering agent, at a pH of 6.8 (range of 6.6 to 7.0). The test buffer may also contain 30 μM ethacrynic acid dissolved in EtOH as solvent.
In order to verify the CAK channel is involved in the membrane potential of the RBC used for the membrane potential ratios (MPR™) tests, the CAK channel blockers, quinine and clotrimazole were added to the test buffer and the membrane potential ratios (MPR™) was determined. The membrane potential ratios (MPR™) values are shown in box plots. […] Similarly boxes 3, 4 and 5 show the results for clotrimazole (CLTX). Box 3 represents no CLTX, while box 4 for 2.5 micro molar CLTX and box 5 for 5 micro molar concentrations in the test buffer.
Blood samples from a patient were suspended in a reference buffer (reference buffer sample) as well as in a test buffer (test buffer sample) with 3,3′-dihexyloxacarbocyanine iodide (DiOC6) dye, incubated, spun, drained and the […] resuspended in their respective buffers without the dye. The resuspended buffer samples were then distributed in three separate 96 well plates and tested in a Plate Reader for fluorescence intensity. The Plate Reader recorded a data matrix of each of the 96 well plates and the data matrix was transferred to a Template to calculate the ratio between the test buffer sample and the corresponding reference buffer sample. The resulting ratios were calculated to determine the mean value, the standard deviation and the coefficient of variation. This procedure was repeated two more times and the resulting mean value, standard deviation and the coefficient of variation calculated in the same manner. The Membrane Potential Ratio (MPR™) obtained from the mean values was 0.781 (with a standard deviation of 0.014 and coefficient of variation of 1.76). Based on the MPR™ value of 0.781, the patient was diagnosed to have ADHD (with a greater than 97% probability).

[2] = system: calmodulin-dependent protein kinase II (CaM-kinase II); details: Ishida et al. 1995; cited from earlier work
[3] = system: diacylglycerol kinase; details: human red blood cell membranes; de Courcelles et al. 1985; cited from earlier work
[4] = CAK channel blockers added to the test buffer (quinine 1 mM; CLTX 2.5 and 5 micro molar), FIG. 2

## C=C[C@H]1C[N@@]2CC[C@H]1C[C@H]2[C@H](O)c1ccnc2ccc(OC)cc12 [quinine]
[1]; 1 mM quinine in the test buffer compared to test buffer without quinine, FIG. 2
  membrane potential ratio (MPR) values: increased
[1]; [4]
  effect on membrane potentials: depolarized the membrane potentials robustly
[1]; FIG. 2
  EtOH effect (hSK4 opening / hyperpolarization): blocked

## CCCCCCCCCCCCCC(=O)O[C@@H]1[C@@H](C)[C@@]2(O)[C@@H](C=C(CO)C[C@]3(O)C(=O)C(C)=C[C@@H]23)[C@@H]2C(C)(C)[C@]12OC(C)=O [PMA, phorbol 12-myristate 13-acetate]
[1]; 2.5 μM in the test buffer versus without PMA, FIG. 4
  effect on membrane potential ratio (MPR) / cell polarization: depolarizes the cells very effectively

## Clc1ccccc1C(c1ccccc1)(c1ccccc1)n1ccnc1 [clotrimazole]
[1]; [4]
  effect on membrane potentials: depolarized the membrane potentials robustly
[1]; FIG. 2
  EtOH effect (hSK4 opening / hyperpolarization): blocked

## Nc1ncnc2c1nc(Sc1ccc(Cl)cc1)n2[C@@H]1O[C@@H]2COP(=O)(O)O[C@H]2[C@H]1O [8-CPT, 8-CPT-cAMP]
[1]; 50 μM in the test buffer, FIG. 3
  effect on membrane potential ratio (MPR) / membrane potentials: did not have any effect; also recorded: no effect

## CN[C@@H]1C[C@H]2O[C@@](C)([C@@H]1OC)n1c3ccccc3c3c4c(c5c6ccccc6n2c5c31)C(=O)NC4 [Staurosporine, staurosporine]
[1]; three concentrations (250 nM, 500 nM and 750 nM) in the test buffer, FIG. 5
  effect on membrane potentials: hyperpolarizes the membrane potentials very effectively
[1]; three concentrations (250 nM, 500 nM and 750 nM) in the test buffer, FIG. 5, listed as staurosporine
  effect on membrane potentials: hyperpolarizes the membrane potential in a concentration dependent manner

## autocamtide-2-related inhibitory peptide [AIP]
[1]; 5 μM concentration, FIG. 6
  effect on membrane potential: depolarizes the membrane potential robustly
[2]
  inhibition of CaM-kinase II: highly specific and potent inhibitor

## Cc1nc2sccn2c(=O)c1CCN1CCC(=C(c2ccccc2)c2ccc(F)cc2)CC1 [ALX, 6-[2-[4-[(4-fluorophenyl)phenylmethylene]-1-piperidinyl]ethyl]-7-methyl-5H-thiazolo[3,2-a]pyrimidin-5-one]
[1]; three concentrations 2.5 μl, 5 μl and 7.5 μl, FIG. 7
  effect on membrane potential: depolarizes the membrane potential
[3]
  inhibition of diacylglycerol kinase: found to inhibit diacylglycerol kinase

From patent US10365268B2, “Methods for identifying modulators of membrane potentials in bipolar disorder and attention deficit hyperactivity disorder” (PsychNostics, LLC, priority 2011, dated 2019)
